Assays:
[1] = Peroxidation of multilamellar PC liposomes with incorporated nitroxides, induced by Bu^tOOH/Cytochrome C, oxygen consumption; conditions: 22 μM nitroxide incorporated inside 0.77 mM multilamellar liposomes; pH 7.4, 37° C., 5 minutes
Procedure: The compounds are indicated with the abbreviations: MC4, DC4, TEMPO and TDN as defined for FIG. 2. With reference to FIG. 4, the percentage inhibition of the consumption of oxygen was obtained from measurements carried out on an oxygraph. The system studied consists of multilamellar PC liposomes which have nitroxides incorporated inside them ([…]) in 5 mM phosphate buffer saline, 0.1 mM EDTA, pH 7.4 at 37° C.
The Applicant carried out an experimental test to evaluate the peroxidation of multilamellar PC liposomes, induced through the Bu^tOOH/Cytochrome C system.
The liposomes employed in this experimental system contain inside them the antioxidant agents. […] The peroxidation of these liposomes was evaluated by monitoring the consumption of oxygen in a final volume of 1.8 ml and at a constant temperature of 37° C. in 5 mM of phosphate buffer saline, 0.1 mM EDTA, pH 7.4 as previously described.
The final concentration of the liposomes and of antioxidant agents, in the oxidation chamber, was 0.77 mM and 22 μM respectively. […] The consumption of oxygen was monitored for 5 minutes. For each of the nitroxides tested, the degree of suppression of oxygen consumption was calculated. […]

[2] = Peroxidation of unilamellar PC liposomes induced by Bu^tOOH/Cytochrome C, oxygen consumption (oxygraph); conditions: for inhibition of oxygen consumption: 5 μM nitroxide added 80 s after onset, 2.4 mM unilamellar PC liposomes, PBS pH 7.4, 37° C., 6 minutes
Procedure: Oxidation was induced by injecting at point A, 25 μl of Bu^tOOH 7.3 M and injecting at point B 25 μl of cytochrome C (1 mg protein/ml). Point C refers to the addition of 5 μM of the following compounds (if not specified otherwise):
The compounds are indicated with the following abbreviations: MC4, the compound with formula (I) in which R=C4 alkyl residue; DC4, the compound with formula (I) in which R=(X) and (X) contains R1=C4 methylenic alkyl residue; MC8, the compound with formula (I) in which R=C8 alkyl residue; DC8, the compound with formula (I) in which R=(X) and (X) contains R1=C8 methylenic alkyl residue; TEMPO and TDN. With reference to FIG. 2, the percentage inhibition of the consumption of oxygen in PC unilamellar liposome (2.4 mM) in 5 mM phosphate buffer saline, 0.1 mM EDTA, pH 7.4 at 37° C. to which 5 μM nitroxide compounds was added are reported.
The Applicant has selected certain nitroxide radicals as antioxidant agents following experimental tests. The antioxidant properties were studied in the laboratory in different biological systems. The systems employed are biological systems which mimic in vivo ones. The biological systems used are subjected to oxidative damage. Oxidative damage was induced in various ways. The Applicant carried out an experimental test to evaluate the peroxidation of unilamellar PC liposomes induced by the use of the Bu^tOOH/Cytochrome C system. […]
After 80 seconds from the onset of peroxidation, the different nitroxide radicals at final concentration of 5 μM were added. […] The reaction was monitored for 6 minutes. For each nitroxide tested, the extent of inhibition of the consumption of oxygen was calculated. The value of inhibition was calculated in the following way: […]
Each individual recording is reported in FIG. 1, since the rate of oxygen consumption before the addition of the antioxidant compounds at point C is always constant. From these experiments, the percentage inhibition of oxygen consumption was calculated by subtraction as reported above.

## CC1(C)CCCC(C)(C)N1[O] [TEMPO, 2,2,6,6-tetramethylpiperidine-1-oxyl]
[1]
  inhibited peroxidation (percentage of inhibition of oxygen consumption): no effect
[2]
  inhibition of oxygen consumption: no protective effects
[2]; higher concentration than 5 μM, same experimental conditions
  protective effects against lipid peroxidation: no protective effects

## bis(2,2,6,6-tetramethylpiperidine-1-oxyl-4-yl)sebacate [TDN]
[1]
  inhibited peroxidation (percentage of inhibition of oxygen consumption): 45%
[2]
  inhibition of oxygen consumption: lower inhibition values with respect to DC4

Reference: patent US20030224026A1, “Dermatological or cosmetic composition which includes aromatic nitroxide compounds and their use” (priority 2002, published 2003)
